According to patent publication US20080118458A1, “Agent containing L-Carnitine or L-Carnitine derivatives and at least one other specific substance” (priority 2005, published 2008):

How the values were obtained:
[1] = test system: Hepatocyte Growth Factor (HGF); experiment: Release of HGF into the medium of organotypical cell cultures (ELISA); format: cell-based; conditions: 72 h; individual substance 0.01%; untreated = 100
Procedure: (§1) Hepatocyte Growth Factor (HGF) and Keratinocyte Growth Factor (KGF) are important growth factors which are released from the dermal papillae in order to control the proliferation of the hair keratinocytes. A potentially growth-promoting and hair-strengthening substance can be assumed from an increase in the factors released into the medium. The release of HGF and KGF can be quantified with the help of commercially available ELISA kits. For this, organotypical cell cultures are incubated over 72 h with the substance mixture and the concentration of the growth factors in the medium is determined in the described manner.

[2] = test system: Keratinocyte Growth Factor (KGF); experiment: Release of KGF into the medium of organotypical cell cultures (ELISA); format: cell-based; conditions: 72 h; individual substance 0.01%; untreated = 100
Procedure: as §1

| SMILES | HGF mean [%] (standard deviation) [1] | KGF mean [%] (standard deviation) [2] |
| --- | --- | --- |
| NCCS(=O)(=O)O [Taurine, 2-aminoethanesulfonic acid] | 120 (21) % | 71 (7) % |
| C[N+](C)(C)C[C@H](O)CC(=O)[O-].O=C(O)C(O)C(O)C(=O)O [Carnitine tartrate, L-carnitine tartrate] | 100 (42) % | 108 (8) % |
